The results in this text go back to ChEMBL document CHEMBL2440069, “Synthesis and biological evaluation of direct thrombin inhibitors bearing 4-(piperidin-1-yl)pyridine at the P1 position with potent anticoagulant activity” (J Med Chem, 2013).

The target of series [1] is T1, Coagulation factor VII (Homo sapiens, UniProt P08709).
T1 sequence (P08709 whole entry): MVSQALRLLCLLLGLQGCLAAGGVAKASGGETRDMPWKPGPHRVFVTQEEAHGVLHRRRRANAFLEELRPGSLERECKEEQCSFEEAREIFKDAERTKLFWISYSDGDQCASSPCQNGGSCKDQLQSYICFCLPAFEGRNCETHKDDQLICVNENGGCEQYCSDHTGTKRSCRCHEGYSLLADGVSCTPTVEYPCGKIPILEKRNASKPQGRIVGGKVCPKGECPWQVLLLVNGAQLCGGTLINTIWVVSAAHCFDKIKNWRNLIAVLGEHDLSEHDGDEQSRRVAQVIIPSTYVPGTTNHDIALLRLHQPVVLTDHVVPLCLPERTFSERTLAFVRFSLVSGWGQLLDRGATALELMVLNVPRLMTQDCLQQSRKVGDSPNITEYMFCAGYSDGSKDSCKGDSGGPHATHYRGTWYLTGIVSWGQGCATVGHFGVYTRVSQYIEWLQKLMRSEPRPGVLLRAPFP
Nature of the series: Inhibition of human recombinant factor 7a using spectrozyme as substrate by chromogenic assay.

In series [2] the target is Chymotrypsinogen A (Bos taurus, UniProt P00766). Nature of the series: Inhibition of bovine alpha-chymotrypsin using N-succinyl-Ala-Ala-Pro-Phe-p-NA as substrate by chromogenic assay.
Series [3] in a line: Inhibition of bovine pancreatic trypsin using D-Phe-Pip-Arg-p-NA as substrate by chromogenic assay. Details: species or system Bos taurus.
Series [4] is described as follows: Dissociation constant, pKa of the compound by potentiometric titration. The series is classed as physicochemical.
Series [5] concerns Mus musculus. Kind of series: Ex vivo anticoagulant activity in CD1 mouse plasma assessed as activated partial thromboplastin time at 100 mg/kg, po after 2 hrs. The series is classed as functional.
Series [6] can be described thus: 1-octanol-water partition coefficient, log D of the compound. The series is classed as physicochemical.
The nature of series [7]: 1-octanol-water partition coefficient, log P of the neutral form compound by HILIC analysis. The class given is physicochemical.
Series [8] concerns the target Prothrombin (Homo sapiens, UniProt P00734). Nature of the series: Inhibition of human thrombin using D-Phe-Pip-Arg-p-NA as substrate by chromogenic assay.
Series [9] addresses T2, Neutrophil elastase (Homo sapiens, UniProt P08246).
T2 sequence (P08246 whole entry): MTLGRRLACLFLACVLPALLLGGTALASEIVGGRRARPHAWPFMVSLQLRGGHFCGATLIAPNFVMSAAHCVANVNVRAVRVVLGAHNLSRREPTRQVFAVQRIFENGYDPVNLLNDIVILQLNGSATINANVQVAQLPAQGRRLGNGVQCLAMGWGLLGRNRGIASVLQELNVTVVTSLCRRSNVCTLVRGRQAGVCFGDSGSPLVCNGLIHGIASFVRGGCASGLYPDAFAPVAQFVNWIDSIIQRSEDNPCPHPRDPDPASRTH
Nature of the series: Inhibition of human neutrophil leukocyte elastase using N-(methoxysuccinyl)-Ala-Ala-Pro-Val-p-NA as substrate by chromogenic assay.

Series [10] deals with Plasma. Nature of the series: Anticoagulant activity in human plasma assessed as concentration required to double activated […] time. The class given is functional.
The target in series [11] is Prothrombin (Bos taurus, UniProt P00735). Nature of the series: Inhibition of bovine thrombin using D-Phe-Pip-Arg-p-NA as substrate by chromogenic assay. Particulars: read-out: Ki.
In series [12] the test system is Mus musculus. Kind of series: Ex vivo anticoagulant activity in CD1 mouse plasma assessed as activated partial thromboplastin time at 100 mg/kg, po after 1 hr. The series is classed as functional.

For `O=C(Nc1cccc(OCc2cccc(F)c2)c1)C1CCN(c2ccncc2)CC1`, the Ki in [1] was over 250 µM; in series [2], 6.6 µM; in series [3] it was over 250 µM; in series [8] it was 0.016 µM; in series [9], 11.3 µM; in series [11] it was 0.006 µM. In [4], this compound showed a pKa of 9. The Activity in series [5] is on record as 43%; in [12], 36%. Moreover, in [6], the log distribution coefficient (logD) worked out at 3.14. The logP in [7] came out at 5. The 2aPTT in series [10] stood at 6.6 µM.
